# Like-named read-outs stand apart in the source and are kept apart here.
# Experiments:
# [1] = mouse, hepatocytes
# [2] = hepatocytes
# [3] = mouse, hepatocytes; remark: listed apart in the source
# CYP = conditions: cited from earlier work
# [4] = microsomes
# [5] = Oral pharmacokinetics in WT mice; conditions: female, mouse, whole blood
# [6] = Oral pharmacokinetics in 8HUM mice; conditions: female, mouse, whole blood
# [7] = human, 100 mg BID; ref SI 8; cited from earlier work
# [8] = mouse, microsomes
# [9] = mouse, microsomes; remark: listed apart in the source
# [10] = mouse, microsomes; remark: listed apart in the source
# M. tuberculosis H37Rv = assay: Acute M. tuberculosis infection efficacy model in 8HUM (lung CFU); type: in vivo, Mycobacterium tuberculosis
# [11] = DDI: pretomanid PK after CYP3A4 inducer pre-treatment in WT mice; type: in vivo, mouse
# Experimental: (§1) With the exception of quinidine PK, female mice were used in all experiments. Dose levels and schedules were as detailed in SI Appendix. Serial blood samples (10 µL) were taken from the tail vein at the timepoints shown, diluted into 9 volumes of Milli-Q water, and stored at −20 °C prior to bioanalysis. Samples from mice infected with T. cruzi were snap-frozen in liquid nitrogen and thawed three times before storage at −20 °C until bioanalysis. Samples from mice infected with M. tuberculosis (15 µL) were mixed with two volumes of Milli-Q and stored at −70 °C until bioanalysis. All non-compartmental analysis, modeling, and simulation of PK was carried out using Phoenix WinNonlin version 8.3.1.5014 (Certara), as described in SI Appendix.
# (§2) Mouse hepatic microsomes were prepared by homogenization of freshly-isolated liver in ice-cold SET buffer (0.25 M sucrose, 5 mM EDTA, and 20 mM Tris-HCL, pH 7.4) to make a 10% (w/v) homogenate solution (9 ml SET buffer/1 g liver) using a Polytron PT-MR-2100 homogenizer. Liver homogenates were centrifuged at 2000 rpm (Sorvall RTH-250 rotor) for 10 minutes at 4 °C and the supernatant then centrifuged at 12000 rpm (Sorvall SS-34 rotor) for 20 minutes at 4 °C. The resulting supernatant was centrifuged at 29130 rpm (Sorvall TFT-45.6 rotor) for 90 minutes at 4 °C and the microsomal pellets were resuspended in ice-cold SET buffer for storage at –70 °C.
# (§3) Primary hepatocytes were freshly prepared from 8HUM using a modified version of Charni-Natan and Goldstein’s STAR Protocol(1). Following termination by cervical dislocation and femoral vessel cut […]
# (§4) canula (Merck) and the liver perfused using 30 mL Hanks Buffered Saline Solution (HBSS, -Ca 2+ -Mg2+, no phenol red, Gibco), containing 0.5 mM EDTA and 25 mM HEPES, running at a flow rate of 3 mL/min at approximately 37 °C. Subsequently, 10 mL HBSS digestion buffer (Ca2+ & Mg2+, no phenol red, Gibco), including 25 mM HEPES and 270 µL liberase (Merck) running at a flow rate of 3 mL/min and ~37 °C was then perfused. The final perfusion step utilised 30 mL HBSS digestion buffer containing 25 mM HEPES and 20 mg collagenase (Merck) at approximately 37 °C. The liver was excised, gall bladder removed and placed in a 10 cm petri dish where it was covered with 10 mL plating medium WME containing CM4000. The liver capsule was gently agitated with a glass rod and forceps to disperse the liver cells. Cells were then poured through a 100 µm nylon strainer (Falcon, Corning, NY, USA) into a 50 mL collection tube and topped up to 50 mL with plating medium at 37 °C. All solutions were perfused using a Miniplus peristaltic pump (Gilson, Middleton, WI, USA) and run through a 20 mL Intrafix Safeset bubble trap (Braun, Melsungen, Germany) to prevent potential blocking of vessels during perfusion. […]
# [12] = DDI: pretomanid PK after CYP3A4 inducer pre-treatment in 8HUM; type: in vivo, mouse (8HUM)
# Experimental: as §1, §2, §3, §4
# M. tuberculosis = conditions: cited from earlier work
# [13] = human, in vivo; cited from earlier work
# [14] = WT pre-treated with efavirenz (40 mg/kg once daily for three days)
# [15] = WT pre-treated with rifampicin (2 mg/kg once, 24 hr prior)
# [16] = 8HUM pre-treated with efavirenz (40 mg/kg once daily for three days)
# [17] = 8HUM pre-treated with rifampicin (2 mg/kg once, 24 hr prior)
structure (smiles),measurement,setting,value
CCOc1ccc2ccc(=O)oc2c1 [7-ethoxycoumarin],"CLint, WT",[1],39 mL/min/g liver
same,"CLint, Human",[2],8.2 mL/min/g liver
same,"CLint, 8HUM",[3],13.8 mL/min/g liver
CC1(C)S[C@@H]2[C@H](NC(=O)[C@H](N)c3ccc(O)cc3)C(=O)N2[C@H]1C(=O)O [Amoxicillin],CYP interaction: Inhibitor,CYP,2C19
CC(C)CN(C[C@@H](O)[C@H](Cc1ccccc1)NC(=O)O[C@H]1CCOC1)S(=O)(=O)c1ccc(N)cc1 [Amprenavir],CYP interaction: Inhibitor,CYP,3A4
CO[C@H]1O[C@@H]2O[C@@]3(C)CC[C@H]4[C@H](C)CC[C@@H]([C@H]1C)[C@@]24OO3 [Artemether],CYP interaction: Inhibitor,CYP,3A4
CC[C@H]1OC(=O)[C@H](C)[C@@H](O[C@H]2C[C@@](C)(OC)[C@@H](O)[C@H](C)O2)[C@H](C)[C@@H](O[C@@H]2O[C@H](C)C[C@H](N(C)C)[C@H]2O)[C@](C)(OC)C[C@@H](C)C(=O)[C@H](C)[C@@H](O)[C@]1(C)O [Clarithromycin],"CLint, Human",[4],1.4 mL/min/g liver
same,CYP interaction: Substrate,CYP,3A4
C[C@]1(COc2ccc(N3CCC(Oc4ccc(OC(F)(F)F)cc4)CC3)cc2)Cn2cc([N+](=O)[O-])nc2O1 [Delamanid],CL/F,[5],110 mL/min/kg
same,"CLint, Human",[4],0.8 mL/min/g liver
same,CL/F,[6],20.7 mL/min/kg
same,apparent volume of distribution (V/F),[7],11.9 L/kg
same,oral clearance (CL/F),[7],9.12 mL/min/kg
O=C(O)Cc1ccccc1Nc1c(Cl)cccc1Cl [Diclofenac],"CLint, 8HUM",[3],1.8 mL/min/g liver
CC[C@H]1OC(=O)[C@H](C)[C@@H](O[C@H]2C[C@@](C)(OC)[C@@H](O)[C@H](C)O2)[C@H](C)[C@@H](O[C@@H]2O[C@H](C)C[C@H](N(C)C)[C@H]2O)[C@](C)(O)C[C@@H](C)C(=O)[C@H](C)[C@@H](O)[C@]1(C)O [Erythromycin],"CLint, Human",[4],3.3 mL/min/g liver
same,"CLint, WT",[1],1.3 mL/min/g liver
same,"CLint, Human",[2],0.5 mL/min/g liver
same,"CLint, 8HUM",[3],0.5 mL/min/g liver
Cc1cc(C#N)cc(C)c1Oc1nc(Nc2ccc(C#N)cc2)nc(N)c1Br [Etravirine],"CLint, Human",[4],1 mL/min/g liver
CCCCN(CCCC)CCC(O)c1cc2c(Cl)cc(Cl)cc2c2cc(C(F)(F)F)ccc12 (stereo not drawn) [Halofantrine],"CLint, Human",[4],1.7 mL/min/g liver
same,CYP interaction: Substrate,CYP,3A4
CC(=O)NC[C@H]1CN(c2ccc(N3CCOCC3)c(F)c2)C(=O)O1 [Linezolid],"CLint, WT",[8],0.5 mL/min/g liver
same,"CLint, 8HUM",[9],0.5 mL/min/g liver
same,"CLint, CypC4KO",[10],0.5 mL/min/g liver
same,"CLint, 8HUM",[3],0.5 mL/min/g liver
same,CYP interaction: Substrate,CYP,3A4
OC(c1cc(C(F)(F)F)nc2c(C(F)(F)F)cccc12)C1CCCCN1 (stereo not drawn) [Mefloquine],"CLint, Human",[4],0.5 mL/min/g liver
same,"CLint, WT",[1],0.5 mL/min/g liver
same,"CLint, Human",[2],0.5 mL/min/g liver
same,"CLint, CypC4KO",[10],0.5 mL/min/g liver
same,"CLint, 8HUM",[3],0.5 mL/min/g liver
CO[C@H]1C[C@H](O[C@H]2[C@H](C)[C@@H](O[C@@H]3O[C@H](C)C[C@H](N(C)C)[C@H]3O)[C@@H](C)C[C@@]3(CO3)C(=O)[C@H](C)[C@@H](O)[C@@H](C)[C@@H](C)OC(=O)[C@@H]2C)O[C@@H](C)[C@@H]1O [Oleandomycin],"CLint, Human",[4],18.5 mL/min/g liver
same,"CLint, CypC4KO",[10],50 mL/min/g liver
same,CYP interaction: Inhibitor,CYP,3A4
CCOc1ccc(NC(C)=O)cc1 [Phenacetin],"CLint, 8HUM",[3],1.3 mL/min/g liver
CC[C@@H]([C@H](C)O)n1ncn(-c2ccc(N3CCN(c4ccc(OC[C@@H]5CO[C@@](Cn6cncn6)(c6ccc(F)cc6F)C5)cc4)CC3)cc2)c1=O [Posaconazole],"CLint, WT",[8],0.5 mL/min/g liver
same,"CLint, 8HUM",[9],0.5 mL/min/g liver
same,"CLint, Human",[4],0.5 mL/min/g liver
O=[N+]([O-])c1cn2c(n1)OC[C@@H](OCc1ccc(OC(F)(F)F)cc1)C2 [Pretomanid],"CLint, WT",[8],0.5 mL/min/g liver
same,CL/F,[5],4.43 mL/min/kg
same,"CLint, 8HUM",[9],0.5 mL/min/g liver
same,efficacy in 8HUM compared with WT (lung CFU),"M. tuberculosis H37Rv; M. tuberculosis infection, once a day for 8 days",less effective in 8HUM
same,"CLint, Human",[4],0.5 mL/min/g liver
same,CL/F,[6],2.17 mL/min/kg
same,decrease in AUC of pretomanid,[11]; [14],65%
same,decrease in Cmax of pretomanid,[11]; [14],31%
same,decrease in AUC of pretomanid,[11]; [15],10%
same,decrease in Cmax of pretomanid,[11]; [15],6%
same,decrease in AUC of pretomanid,[12]; [16],54%
same,decrease in Cmax of pretomanid,[12]; [16],14%
same,decrease in AUC of pretomanid,[12]; [17],51%
same,decrease in Cmax of pretomanid,[12]; [17],25%
same,minimum inhibitory concentration,M. tuberculosis,0.06 µg/mL
same,decrease in AUC of pretomanid,[13],35%
same,decrease in Cmax of pretomanid,[13],28%
same,CYP interaction: Substrate,CYP,3A4
[H]/N=C(\N/C(=N/[H])Nc1ccc(Cl)cc1)NC(C)C [Proguanil],"CLint, WT",[8],0.5 mL/min/g liver
same,"CLint, 8HUM",[9],0.5 mL/min/g liver
same,"CLint, Human",[4],0.3 mL/min/g liver
same,CYP interaction: Substrate,CYP,2C19
C=C[C@H]1C[N@@]2CC[C@H]1C[C@@H]2[C@@H](O)c1ccnc2ccc(OC)cc12 [Quinidine],CYP interaction: Inhibitor,CYP,2D6
CO[C@H]1/C=C/O[C@@]2(C)Oc3c(C)c(O)c4c(O)c(c(/C=N/N5CCN(C)CC5)c(O)c4c3C2=O)NC(=O)/C(C)=C\C=C\[C@H](C)[C@H](O)[C@@H](C)[C@@H](O)[C@@H](C)[C@H](OC(C)=O)[C@@H]1C [Rifampicin],"CLint, Human",[4],0.8 mL/min/g liver
CO[C@H]1/C=C/O[C@@]2(C)Oc3c(C)c(O)c4c(O)c(c(/C=N/N5CCN(C6CCCC6)CC5)c(O)c4c3C2=O)NC(=O)/C(C)=C\C=C\[C@H](C)[C@H](O)[C@@H](C)[C@@H](O)[C@@H](C)[C@H](OC(C)=O)[C@@H]1C [Rifapentine],CYP interaction: Inducer,CYP,"2C8, 2C9"
CC(C)c1nc(CN(C)C(=O)N[C@H](C(=O)N[C@@H](Cc2ccccc2)C[C@H](O)[C@H](Cc2ccccc2)NC(=O)OCc2cncs2)C(C)C)cs1 [Ritonavir],"CLint, Human",[4],6.6 mL/min/g liver
C[C@H](Cn1cnc2c(N)ncnc21)OCP(=O)(O)O [Tenofovir],CYP interaction: Substrate,CYP,1A2
COc1c(N2C[C@@H]3CCCN[C@@H]3C2)c(F)cc2c(=O)c(C(=O)O)cn(C3CC3)c12 [moxifloxacin],log CFU reduction in the lungs compared to the control group,"M. tuberculosis H37Rv; 8HUM, day 9, 30 mg/kg QD",3.9 log CFU

# — paper PMC10873626, “Acceleration of infectious disease drug discovery and development using a humanized model of drug metabolism” (Proceedings of the National Academy of Sciences of the …, 2024)
